Assay [1] addresses T1, Phosphatidylinositol 4,5-bisphosphate 3-kinase catalytic subunit alpha isoform (Homo sapiens, UniProt P42336). In words: Inhibition of PIK3CA (unknown origin) using diC8-PIP2 as substrate preincubated for 30 mins followed by substrate addition and measured after 60 mins by ADP-Glo assay. For orientation: In ADP-Glo the light output rises with the ADP produced.
Assay [2] has as its target T1, Phosphatidylinositol 4,5-bisphosphate 3-kinase catalytic subunit alpha isoform. Nature of the assay: Inhibition of PIK3CA (unknown origin) expressed in MCF-10A cells incubated for 2 hrs by HTRF method. Type of assay: cell-based. (In general: Time-resolved FRET reads energy transfer from a long-lived donor to a nearby acceptor.)

The structures appear in SMILES notation. Where only a bound is given, the exact number is not on record here.

T1 sequence (P42336 whole entry, canonical isoform): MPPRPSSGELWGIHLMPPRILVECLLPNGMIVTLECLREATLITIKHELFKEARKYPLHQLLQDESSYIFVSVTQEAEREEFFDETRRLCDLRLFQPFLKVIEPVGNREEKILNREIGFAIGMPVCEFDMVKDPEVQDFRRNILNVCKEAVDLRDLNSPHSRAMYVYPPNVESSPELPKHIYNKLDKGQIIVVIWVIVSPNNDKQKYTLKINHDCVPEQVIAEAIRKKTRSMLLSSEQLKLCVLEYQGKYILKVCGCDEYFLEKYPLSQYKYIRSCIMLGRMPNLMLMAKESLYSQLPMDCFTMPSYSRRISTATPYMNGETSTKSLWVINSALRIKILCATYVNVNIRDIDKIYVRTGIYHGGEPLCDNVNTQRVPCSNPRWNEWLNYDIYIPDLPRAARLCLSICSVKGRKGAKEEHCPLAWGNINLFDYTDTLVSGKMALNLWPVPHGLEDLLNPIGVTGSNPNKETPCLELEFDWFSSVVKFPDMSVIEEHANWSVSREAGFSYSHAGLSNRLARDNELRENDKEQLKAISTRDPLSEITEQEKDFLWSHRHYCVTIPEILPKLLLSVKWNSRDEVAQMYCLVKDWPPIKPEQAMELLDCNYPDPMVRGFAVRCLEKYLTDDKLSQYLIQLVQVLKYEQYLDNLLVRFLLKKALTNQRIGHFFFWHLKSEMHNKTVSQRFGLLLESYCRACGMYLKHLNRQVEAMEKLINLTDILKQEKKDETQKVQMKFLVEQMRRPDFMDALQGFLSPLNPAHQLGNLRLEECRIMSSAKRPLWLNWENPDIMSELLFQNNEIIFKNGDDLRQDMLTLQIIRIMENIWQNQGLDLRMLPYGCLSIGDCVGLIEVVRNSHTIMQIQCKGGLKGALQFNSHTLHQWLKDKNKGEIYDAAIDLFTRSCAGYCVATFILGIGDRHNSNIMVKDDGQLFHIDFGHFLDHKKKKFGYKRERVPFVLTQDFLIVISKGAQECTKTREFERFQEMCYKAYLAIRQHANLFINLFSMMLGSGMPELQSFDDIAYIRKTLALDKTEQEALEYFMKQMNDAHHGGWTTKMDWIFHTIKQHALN

`Cc1ccccc1Nc1ncc(C(=O)NC2CC(F)(F)C2)cc1NC(=O)c1cc(F)cc(C(F)(F)F)c1`: the concentration for half-maximal inhibition (IC50) (in general, the midpoint of a concentration-inhibition curve) in assay [1] was 100 nM; in assay [2], 1000 nM.
For the molecule `Cc1ccccc1Nc1ncc(C(=O)NC2C[S+]([O-])C2)cc1NC(=O)c1csc2ccccc12` (centres undefined), the values for the IC50 in assay [1] and in assay [2] were ≤ 100 nM and 1000 nM, respectively.
In the case of `Cc1ccccc1Nc1ncc(C(=O)NCc2nccs2)cc1NC(=O)c1csc2ccccc12`, the figures for the IC50 in assay [1] and in assay [2] were ≤ 100 nM and 5000 nM, respectively.
As to `Cc1ccccc1Nc1ncc(C(=O)Nc2ccncc2)cc1NC(=O)c1cc(F)cc(C(F)(F)F)c1`, the IC50 in assay [1] is 100 nM; in assay [2], ≤ 1000 nM.
For `Cc1ccccc1Nc1ncc(C(=O)NCc2ccc(Cl)cc2)cc1NC(=O)c1csc2ccccc12`, in that order: 100 nM and 1000 nM.
`Cc1ccccc1Nc1ncc(C(=O)NCC2CC(F)(F)C2)cc1NC(=O)c1cc(F)cc(C(F)(F)F)c1`: the results for the IC50 in assay [1] and in assay [2] were 100 nM and 1000 nM, respectively.
`Cc1ccccc1Nc1ncc(C(=O)NCc2ccnn2C)cc1NC(=O)c1cc(F)cc(C(F)(F)F)c1`: the figures for the IC50 in assay [1] and in assay [2] were 100 nM and 1000 nM, respectively.
`Cc1ccccc1Nc1ncc(C(=O)NC2CS(=O)(=O)C2)cc1NC(=O)c1csc2ccccc12`: the concentration for half-maximal inhibition (IC50) in assay [1] is ≤ 100 nM; in assay [2], 1000 nM.
With `Cc1ccccc1Nc1ncc(C(=O)NCc2ccn(C)n2)cc1NC(=O)c1cc(F)cc(C(F)(F)F)c1`, the IC50 in assay [1] was found to be 100 nM; in assay [2], 1000 nM.
For `Cc1ccccc1Nc1ncc(C(=O)NC2CS(=O)(=O)C2)cc1NC(=O)c1cc(F)cc(C(F)(F)F)c1`, in that order: ≤ 100 nM and ≤ 1000 nM.
On to `Cc1ccccc1Nc1ncc(C(=O)NCc2ccnn2C)cc1NC(=O)c1csc2ccccc12`, for which the IC50 stood at 100 nM in assay [1] and 1000 nM in assay [2].
For `Cc1ccccc1Nc1ncc(-c2cncc(C#N)c2)cc1NC(=O)c1cc(F)cc(C(F)(F)F)c1`, in that order: 100 nM and 1000 nM.

For the origin of these results see ChEMBL document CHEMBL5365507, “New Horizons in Cancer Treatment: A Closer Look at Novel PI3Kα Inhibitors” (ACS Med Chem Lett, 2023).
